Five molecules from ChEMBL document CHEMBL1150642, “Hirsutellide A, a new antimycobacterial cyclohexadepsipeptide from the entomopathogenic fungus Hirsutella kobayasii” (J Nat Prod, 2002) can be followed below.

In brackets after ≈: the same amount, converted by molar mass. Where a SMILES comes first, the peptide text is derived from it. [ ]: non-standard residue; d: D form. aIle = CC[C@@H](C)[C@H](N)C(=O)O; dPhLac = O=C(O)[C@H](O)Cc1ccccc1; Sar = CNCC(=O)O

In test [1] the test system is Plasmodium falciparum. The test is described as follows: Antimalarial activity as reduced parasitaemia against multidrug-resistant Plasmodium falciparum K1 by [3H]hypoxanthine uptake. Type of test: functional, organism-based.
Test [2] in a line: Cytotoxicity against human BC1 cells. Type of test: functional, cell-based.
The subject of test [3] is Mycobacterium tuberculosis. Briefly: Antimycobacterial activity against Mycobacterium tuberculosis H37Ra by Microplate Alamar Blue Assay. Format: functional.
In test [4] the test system is Vero. The test is described as follows: Cytotoxicity against african green monkey Vero cells at 50 ug/mL by SRB assay. Format: cell-based. As to conditions: Chlorocebus sabaeus. A general note: The SRB assay estimates cell density from bound dye.

The IC50 is the concentration that inhibits the measured activity by half. In test [1], `C[C@@H]1CC[C@H]2[C@@H](C)C(=O)O[C@@H]3O[C@@]4(C)CC[C@@H]1[C@]32OO4` [ARTEMISININ] came in with an IC50 of 0.001 µg/mL (≈ 0.00354 µM).
In the case of `Cc1c2ccncc2c(C)c2c1[nH]c1ccccc12` [ELLIPTECINE], in test [2], the IC50 was found to be 0.3 µg/mL (≈ 1.22 µM).
A word on the MIC: it is the least concentration at which growth counts as inhibited. `CC[C@@H](C)[C@@H]1NC(=O)[C@@H](Cc2ccccc2)OC(=O)CN(C)C(=O)[C@H]([C@H](C)CC)NC(=O)[C@@H](Cc2ccccc2)OC(=O)CN(C)C1=O` [HIRSUTELLIDE A] (cyclo([Sar][dPhLac][aIle][Sar][dPhLac][aIle])) came in with an MIC in test [3] of 6 µg/mL (≈ 9.03 µM). For the same molecule, the Activity entry in test [1] is “Not toxic”. Further, in test [4], the IC50 amounted to 2.8 µg/mL (≈ 4.21 µM).
For the molecule `NNC(=O)c1ccncc1` [ISONIAZID], the MIC in test [3] came to 0.04 µg/mL (≈ 0.292 µM).
Turning to `NC[C@H]1O[C@H](O[C@H]2[C@H](O)[C@@H](O[C@H]3O[C@H](CO)[C@@H](O)[C@H](N)[C@H]3O)[C@H](N)C[C@@H]2N)[C@H](O)[C@@H](O)[C@@H]1O.O=S(=O)(O)O` [KANAMYCIN SULFATE], the MIC in test [3] was found to be 2 µg/mL.
